From patent US9845321B2, “1,3-dihydro-2H-benzimidazol-2-one derivatives substituted with heterocycles as respiratory syncytial virus antiviral agents” (JANSSEN SCIENCES IRELAND UC, priority 2012, dated 2017) come the findings set out here.

One data set is described as follows: in vitro. It counts as cell-based. To be noted: human. The procedure: (§1) Black 96-well clear-bottom microtiter plates (Corning, Amsterdam, The Netherlands) were filled in duplicate using a customized robot system with serial 4-fold dilutions of compound in a final volume of 50 μl culture medium [RPMI medium without phenol red, 10% FBS, 0.04% gentamycin (50 mg/ml) and 0.5% DMSO]. Then, 100 μl of a HeLa cell suspension (5×10^4 cells/ml) in culture medium was added to each well followed by the addition of 50 μl rgRSV224 (MOI=0.02) virus in culture medium using a multidrop dispenser (Thermo Scientific, Erembodegem, Belgium). rgRSV224 virus is an engineered virus that includes an additional GFP gene (Hallak et al, 2000) and was in-licensed from the NIH (Bethesda, Md., USA). Medium, virus- and mock-infected controls were included in each test. Cells were incubated at 37° C. in a 5% CO2 atmosphere. Three days post-virus exposure, viral replication was quantified by measuring GFP expression in the cells by a MSM laser microscope (Tibotec, Beerse, Belgium). The EC50 was defined as the 50% inhibitory concentration for GFP expression. In parallel, compounds were incubated for three days in a set of white 96-well microtitier plates (Corning) and the cytotoxicity of compounds in HeLa cells was determined by measuring the ATP content of the cells using the ATPlite kit (PerkinElmer, Zaventem, Belgium) according to the manufacturer's instructions. The CC50 was defined as the 50% concentration for cytotoxicity.

A further data set deals with rgRSV224 virus. Description: Antiviral activity: rgRSV224 (GFP-expressing RSV) replication in HeLa cells, GFP expression measured three days post-virus exposure. The format is cell-based. To be noted: human respiratory syncytial virus, 72 h, read-out: WT activity pEC50 (converted). The method, then: as §1

Each structure is given as a SMILES string.

By CC50 is commonly meant the concentration giving 50% cytotoxicity. The low end stands for greater toxicity to the cells, the high end for lower toxicity to the cells.

Compound `COC(=O)c1ccc(-n2c(=O)n(Cc3cc4cc(Cl)ccc4n3CCCC#N)c3cnccc32)cc1` [Compound P51, methyl 4-(3-((5-chloro-1-(3-cyanopropyl)-1H-indol-2-yl)methyl)-2-oxo-2,3-dihydro-1H-imidazo[4,5-c]pyridin-1-yl)benzoate] showed a 50% cytotoxic concentration (CC50) at 3 days in the data set “in vitro” of 39800 nM. For the same compound, the EC50 in the data set with rgRSV224 virus is 0.794 nM. The corresponding values for `COc1ccc(-n2c(=O)n(Cc3cc4cc(Cl)ccc4n3CCCC#N)c3cnccc32)cc1F` [Compound P15, 4-(5-chloro-2-((1-(3-fluoro-4-methoxyphenyl)-2-oxo-1H-imidazo[4,5-c]pyridin-3(2H)-yl)methyl)-1H-indol-1-yl)butanenitrile] are more than 100000 nM and 1 nM.

Turning to `CC1(n2c(=O)n(Cc3nc4nc(Cl)ccc4n3CCCC(F)(F)F)c3cnccc32)CC1` [Compound P9, 3-((5-chloro-1-(4,4,4-trifluorobutyl)-1H-imidazo[4,5-b]pyridin-2-yl)methyl)-1-(1-methylcyclopropyl)-1H-imidazo[4,5-c]pyridin-2(3H)-one], in the data set “in vitro”, the CC50 at 3 days was more than 100000 nM. Besides, the EC50 in the data set with rgRSV224 virus was 1 nM. As to `N#CCCCn1c(Cn2c(=O)n(-c3ncccn3)c3ccncc32)cc2cc(Cl)ccc21` [Compound P21, 4-(5-chloro-2-((2-oxo-1-(pyrimidin-2-yl)-1H-imidazo[4,5-c]pyridin-3(2H)-yl)methyl)-1H-indol-1-yl)butanenitrile], the CC50 at 3 days in “in vitro” was more than 100000 nM. In addition, the EC50 in the data set on rgRSV224 virus is 6.31 nM. The corresponding values for `CC(C)CCn1c(Cn2c(=O)n(-c3ccncc3)c3ccncc32)nc2nc(Cl)ccc21` [Compound P23, 3-((5-chloro-1-isopentyl-1H-imidazo[4,5-b]pyridin-2-yl)methyl)-1-(pyridin-4-yl)-1H-imidazo[4,5-c]pyridin-2(3H)-one] are more than 100000 nM and 7.94 nM. In turn, `COc1ccc(-n2c(=O)n(Cc3cc4nc(Cl)ccc4n3CCCC(F)(F)F)c3cnccc32)cc1` [Compound P17, 3-((5-chloro-1-(4,4,4-trifluorobutyl)-1H-pyrrolo[3,2-b]pyridin-2-yl)-methyl)-1-(4-methoxyphenyl)-1H-imidazo[4,5-c]pyridin-2(3H)-one] showed a CC50 at 3 days in “in vitro” of more than 100000 nM. For the same compound, the EC50 in the data set on rgRSV224 virus is 10 nM. Taken in the same sequence, the figures for `CS(=O)(=O)CCCn1c(Cn2c(=O)n(C3CNC3)c3ccc(F)cc32)cc2cc(Cl)ccc21` [Compound P3, 1-(azetidin-3-yl)-3-((5-chloro-1-(3-(methylsulfonyl)propyl)-1H-indol-2-yl)methyl)-5-fluoro-1H-benzo[d]imidazol-2(3H)-one] were 12600 nM and 100 nM. For `N#CCCCn1c(Cn2c(=O)n(-c3ccc(C(=O)NC4CC4)cc3)c3ccncc32)cc2cc(Cl)ccc21` [Compound P53, 4-(3-((5-chloro-1-(3-cyanopropyl)-1H-indol-2-yl)methyl)-2-oxo-2,3-dihydro-1H-imidazo[4,5-c]pyridin-1-yl)-N-cyclopropylbenzamide], in “in vitro”, the CC50 at 3 days is 25100 nM. In addition, the EC50 with rgRSV224 virus is 0.501 nM. Take `N#CCCCn1c(Cn2c(=O)n(-c3nccs3)c3ccncc32)cc2cc(Cl)ccc21` [Compound P49, 4-(5-chloro-2-((2-oxo-1-(thiazol-2-yl)-1H-imidazo[4,5-c]pyridin-3(2H)-yl)methyl)-1H-indol-1-yl)butanenitrile]: the CC50 at 3 days in “in vitro” is more than 25100 nM. Besides, the EC50 in the data set with rgRSV224 virus was 6.31 nM. The corresponding values for `N#CCCCn1c(Cn2c(=O)n(-c3ccncc3)c3ccncc32)cc2cc(Cl)ccc21` [Compound P48, 4-(5-chloro-2-((2-oxo-1-(pyridin-4-yl)-1H-imidazo[4,5-c]pyridin-3(2H)-yl)methyl)-1H-indol-1-yl)butanenitrile] are more than 100000 nM and 2.51 nM. As for `N#CCCCn1c(Cn2c(=O)n(-c3ccc(C(=O)O)cc3)c3ccncc32)cc2cc(Cl)ccc21` [Compound P52, 4-(3-((5-chloro-1-(3-cyanopropyl)-1H-indol-2-yl)methyl)-2-oxo-2,3-dihydro-1H-imidazo[4,5-c]pyridin-1-yl)benzoic acid], the 50% cytotoxic concentration (CC50) at 3 days in the data set “in vitro” was more than 25100 nM. In addition, the EC50 with rgRSV224 virus was 0.501 nM. `Cn1ccnc1-n1c(=O)n(Cc2cc3cc(Cl)ccc3n2CCCC#N)c2cnccc21` [Compound P33, 4-(5-chloro-2-((1-(1-methyl-1H-imidazol-2-yl)-2-oxo-1H-imidazo[4,5-c]pyridin-3(2H)-yl)methyl)-1H-indol-1-yl)butanenitrile]: in the data set “in vitro”, the 50% cytotoxic concentration (CC50) at 3 days was more than 100000 nM. Also, the EC50 in the data set with rgRSV224 virus is 10 nM. Taken in the same sequence, the figures for `N#CCCCn1c(Cn2c(=O)n(-c3ccncc3F)c3ccncc32)cc2cc(Cl)ccc21` [Compound P42, 4-(5-chloro-2-((1-(3-fluoropyridin-4-yl)-2-oxo-1H-imidazo[4,5-c]pyridin-3(2H)-yl)methyl)-1H-indol-1-yl)butanenitrile] were more than 100000 nM and 0.316 nM.

For `CC(C)(O)CN1CC(n2c(=O)n(Cc3cc4cc(Cl)ccc4n3CCCS(C)(=O)=O)c3cc(F)ccc32)C1` [Compound P12, 3-((5-chloro-1-(3(methylsulfonyl)propyl)-1H-indol-2-yl)methyl)-5-fluoro-1-(1-(2-hydroxy-2-methylpropyl)azetidin-3-yl)-1H-benzo[d]imidazol-2(3H)-one], the CC50 at 3 days in “in vitro” is 12600 nM. The EC50 in the data set on rgRSV224 virus is 39.8 nM.

Consider `N#CCCCn1c(Cn2c(=O)n(-c3ccc4ncccc4c3)c3ccncc32)cc2cc(Cl)ccc21` [Compound P43, 4-(5-chloro-2-((2-oxo-1-(quinolin-6-yl)-1H-imidazo[4,5-c]pyridin-3(2H)-yl)methyl)-1H-indol-1-yl)butanenitrile], for which the CC50 at 3 days in the data set “in vitro” is more than 100000 nM. For the same compound, the EC50 with rgRSV224 virus is 0.398 nM.

In “in vitro”, `CS(=O)(=O)CCCn1c(Cn2c(=O)n(C3CNC3)c3ccncc32)cc2cc(Cl)ccc21` [Compound P4, 1-(azetidin-3-yl)-3-((5-chloro-1-(3-(methylsulfonyl)propyl)-1H-indol-2-yl)methyl)-1H-imidazo[4,5-c]pyridin-2(3H)-one] registered a CC50 at 3 days of more than 100000 nM. Moreover, the EC50 in the data set on rgRSV224 virus is 31.6 nM. In turn, `COc1ccc(-n2c(=O)n(Cc3cc4cc(Cl)ccc4n3CCCC#N)c3cnccc32)cc1` [Compound P14, 4-(5-chloro-2-((1-(4-methoxyphenyl)-2-oxo-1H-imidazo[4,5-c]pyridin-3(2H)-yl)methyl)-1H-indol-1-yl)butanenitrile] showed a CC50 at 3 days in “in vitro” of 12600 nM. Moreover, in the data set with rgRSV224 virus, the EC50 was 0.398 nM. Taken in the same sequence, the figures for `O=c1n(Cc2cc3cc(Cl)ccc3n2CCCCF)c2cnccc2n1-c1ccc2ncccc2c1` [Compound P31, 3-((5-chloro-1-(4-fluorobutyl)-1H-indol-2-yl)methyl)-1-(quinolin-6-yl)-1H-imidazo[4,5-c]pyridin-2(3H)-one] were more than 100000 nM and 1.58 nM. Taken in the same sequence, the figures for `O=c1n(Cc2cc3cc(Cl)ccc3n2CCCCF)c2cnccc2n1-c1ccncc1` [Compound P44, 3-((5-chloro-1-(4-fluorobutyl)-1H-indol-2-yl)methyl)-1-(pyridin-4-yl)-1H-imidazo[4,5-c]pyridin-2(3H)-one] were more than 100000 nM and 1 nM. The corresponding values for `COc1ccc(-n2c(=O)n(Cc3nc4nc(Cl)ccc4n3CCC(C)C)c3cnccc32)cc1` [Compound P16, 3-((5-chloro-1-isopentyl-1H-imidazo[4,5-b]pyridin-2-yl)methyl)-1-(4-methoxyphenyl)-1H-imidazo[4,5-c]pyridin-2(3H)-one] are more than 50100 nM and 1 nM. `Cc1ccc(-n2c(=O)n(Cc3cc4cc(Cl)ccc4n3CCCC#N)c3cnccc32)cc1` [Compound P46, 4-(5-chloro-2-((2-oxo-1-p-tolyl-1H-imidazo[4,5-c]pyridin-3(2H)-yl)methyl)-1H-indol-1-yl)butanenitrile]: the CC50 at 3 days in the data set “in vitro” was more than 100000 nM. Besides, the EC50 in the data set with rgRSV224 virus was 1.26 nM. The corresponding values for `COc1ccc(-n2c(=O)n(Cc3cc4cc(Cl)ccc4n3CCCC#N)c3cnccc32)c(OC)c1` [Compound P47, 4-(5-chloro-2-((1-(2,4-dimethoxyphenyl)-2-oxo-1H-imidazo[4,5-c]pyridin-3(2H)-yl)methyl)-1H-indol-1-yl)butanenitrile] are more than 100000 nM and 1.58 nM. For the compound `N#CCCCn1c(Cn2c(=O)n(-c3ccc(OC(F)(F)F)cc3)c3ccncc32)cc2cc(Cl)ccc21` [Compound P29, 4-(5-chloro-2-((2-oxo-1-(4-(trifluoromethoxy)phenyl)-1H-imidazo[4,5-c]pyridin-3(2H)-yl)methyl)-1H-indol-1-yl)butanenitrile], the CC50 at 3 days in “in vitro” is more than 100000 nM. Moreover, the EC50 in the data set on rgRSV224 virus was 1.26 nM. Regarding `CC(C)CCn1c(Cn2c(=O)n(C3(C)CC3)c3ccncc32)nc2nc(Cl)ccc21` [Compound P18, 3-((5-chloro-1-isopentyl-1H-imidazo[4,5-b]pyridin-2-yl)methyl)-1-(1-methylcyclopropyl)-1H-imidazo[4,5-c]pyridin-2(3H)-one], the CC50 at 3 days in “in vitro” is more than 100000 nM. In addition, in the data set on rgRSV224 virus, the EC50 is 2 nM. Take `N#CCCCn1c(Cn2c(=O)n(-c3ccncc3)c3ccc(F)cc32)cc2cc(Cl)ccc21` [Compound P40, 4-(5-chloro-2-((6-fluoro-2-oxo-3-(pyridin-4-yl)-2,3-dihydro-1H-benzo[d]imidazol-1-yl)methyl)-1H-indol-1-yl)butanenitrile]: in “in vitro”, the CC50 at 3 days is more than 100000 nM.
